Assay results as given in patent publication US20100210611A1, “COMBINATION THERAPY” (priority 2007, published 2010).
“And” between values parts separate entries of the source, which are not always exact repeats. Identical values can stand only once.

Tests used:
[1] = test system: Ascaris challenge in allergic sheep; assay: Allergic sheep model: EAR, LAR and AHR response to Ascaris challenge; format: in vivo; conditions: for AHR (%) inhibition / EAR (%) Inhibition / LAR (%) inhibition: single dose 30 minutes before Ascaris challenge
Procedure: The allergic sheep model was used to test the effect of inhaled montelukast acid against early asthmatic response (EAR), late asthmatic response (LAR) and airway hyper-reactivity (AHR) response to Ascaris challenge in allergic sheep. The compound was administered directly into the lungs using the Spinhaler DPI that was attached directly to an indwelling endotracheal tube. Capsules used in the Spinhaler contained a micronized blend of 20% drug/80% lactose, corresponding to approx. 5 mg of the active compound. The compound was administered as a single dose 30 minutes before Ascaris challenge. To optimize delivery, each Spinhaler actuation was synchronized with a series of aspiratory cycles.
Doses for inhalation were selected based on total IV doses administered in sheep studies that had been conducted. Administration of 3 or 9 capsules should achieve a total inhaled dose of approximately 0.1 mg/kg and 0.3 mg/kg, respectively. The purported dose delivered is an estimate based on an experimentally determined fine particle fraction efficiency of 30%. Plasma drug levels were measured at various time points throughout the study.
Initial experiments (n=2) were performed with 0.1 mg/kg of montelukast acid. […] The second set of experiments (n=4) was performed with 0.3 mg/kg of montelukast acid.

[2] = Blend uniformity (individual capsule assay); format: physicochemical; conditions: HPLC, Mean ± RSD
Procedure: To assess blend uniformity, capsules from each blend were opened and rinsed with methanol. The solution was sonicated for 5 minutes at room temperature, centrifuged at 3000 rpm for 15 minutes then assayed using a UV-VIS spectrophotometer at a wavelength of 346 nm. […]
To assess blend uniformity, the blend was sampled randomly from the glass vial. The drugs were extracted analogous to that described in section Blend Uniformity for Example 1. However, the content of montelukast acid and mometasone furoate were analyzed by High Performance Liquid Chromatography (HPLC) employing a phenyl column with a controlled temperature of 50° C., a mixture of water containing 0.2% trifluoroacetic acid (TFA) and acetonitrile containing 0.2% TFA (53:47) as the mobile phase at a flow rate 2 ml/min and UV-detection at 248 nm.
The blend uniformity was assessed in a manner analogous to that described in the Blend Uniformity section in Example 4, except the content of montelukast acid and ciclesonide were analyzed by High Performance Liquid Chromatography (HPLC) employing a phenyl column with a controlled temperature of 50° C., a mixture of water containing 0.2% trifluoroacetic acid (TFA) and acetonitrile containing 0.2% TFA (40:60) at a flow rate 2 ml/min and UV-detection at 248 nm.

[3] = Dose uniformity, Dosage Unit Sampling Apparatus (DUSA), USP <601>; format: physicochemical; conditions: Spinhaler; for Total recovered / amount in Device + Capsule: listed as MON; for amount in Device + Capsule: nominal 1000 μg MON, 400 μg MOM
Procedure: Dose uniformity was determined using Apparatus B (Dosage Unit Sampling Apparatus—DUSA) at a flow rate of 100 L/min (test described in United States Pharmacopoeia (USP) 27 Chapter <601>). The USP recommends selecting a flow rate that creates a pressure drop of 4 kPa across the inhaler. With the Spinhaler, a 4 kPa pressure drop could not be achieved even at the maximum flow rate of 100 L/min. Based on the recommendations of Byron, et al., a flow rate of 100 L/min was selected since the Spinhaler is a low resistance device. See Michael Hindle and Peter R. Byron, “Dose emissions from marketed dry powder inhalers”, International Journal of Pharmaceutics 116 (1995) 169-177. The test was run for 2.4 seconds in order to pull 4 L of air. After a shot had been delivered, all pieces of the DUSA including the mouthpiece adapter were rinsed with solvent. To determine the amount of drug retained in the inhaler, all pieces of the inhaler were rinsed with solvent including the interior of the capsule. The samples were then assayed using the UV-Vis spectrophotometer.
Shot weight was obtained by measuring the weight loss due to the actuation of the device. The device was tared, a “shot” was wasted in the DUSA and the device was re-weighed to obtain the delivered shot weight. Dose and shot weight were deemed acceptable if they were within 75% to 125% of the theoretical values (USP <601>).
(§1) Dose Uniformity (DU) was performed according to USP Chapter <601> by using DUSA Apparatus B with the Spinhaler® device which is analogous to that described in section Dose Uniformity for Example 1. However, the HPLC was used to analyze the content of the drugs as described in the Blend Uniformity in this example.
as §1, with “Uniformity” for “Uniformity (DU)”, “device and in a manner” for “device which is”, “Uniformity in” for “Uniformity for”, “Example 4, except” for “Example 1. However,”

[4] = Moisture and light sensitivity; format: physicochemical
[5] = Approx. 0.1 mg/kg (3 capsules) inhaled via Spinhaler, n=2
[6] = Approx. 0.3 mg/kg (9 capsules) inhaled via Spinhaler, n=4
[7] = Example 4 blend, flow 61.5 L/min for 3.9 sec
[8] = Example 4 blend, flow 62.3 L/min for 3.9 sec
[9] = Example 4 blend, flow 62.8 L/min for 3.8 sec

## CC(C)(O)c1ccccc1CC[C@@H](SCC1(CC(=O)O)CC1)c1cccc(/C=C/c2ccc3ccc(Cl)cc3n2)c1 [Montelukast Acid, montelukast acid]
[1]; 0.1 mg/kg inhaled, n=2
  inhibition of EAR, LAR and AHR (in words): partial inhibition of the LAR and AHR but not the EAR
[1]; 0.3 mg/kg inhaled, n=4
  inhibition of EAR, LAR and AHR (in words): Marked inhibition of all three phases of the response
[1]; [5]
  AHR (%) inhibition: 60%
  EAR (%) Inhibition: 7%
  LAR (%) inhibition: 42%
[1]; [6]
  AHR (%) inhibition: 76%
  EAR (%) Inhibition: 47%
  LAR (%) inhibition: 79%
[2]; Example 4 blend (montelukast acid 4%, mometasone furoate 1.6%)
  Amount Recovered (μg/Capsule): 940.4 µg and 907.0 µg and 953.9 µg
[2]; Example 4 blend (montelukast acid 4%, mometasone furoate 1.6%), mean
  Amount Recovered (μg/Capsule): 933.8 ± 2.6 µg
[2]; Example 4 blend
  Amount Recovered, %: 91.4% and 93.0% and 93.9%
[2]; Example 4 blend, mean
  Amount Recovered, %: 92.8 ± 1.4%
[2]; Example 5 blend (montelukast acid 4%, ciclesonide 0.64%)
  Amount Recovered (μg/Capsule): 943.3 µg and 928.8 µg and 997.5 µg
[2]; Example 5 blend (montelukast acid 4%, ciclesonide 0.64%), mean of three capsules
  Amount Recovered (μg/Capsule): 956.6 ± 3.4 µg
[2]; Example 5 blend
  Amount Recovered, %: 94.3% and 92.9% and 99.8%
[2]; Example 5 blend, mean of three capsules
  Amount Recovered, %: 95.7 ± 3.4%
[3]; Example 4 blend
  DU based on nominal dose, % (Device + Capsule): *46.6%
  DU based on nominal dose, % (printed in Adapter + Filter column): 49.3%
  DU based on total recovered, % (Device + Capsule): **48.6%
  DU based on total recovered, % (printed in Adapter + Filter column): 51.4%
[3]; [7]
  Total recovered: 952.06 µg and 949.00 µg and 958.48 µg
  amount in Device + Capsule: 465.70 µg and 463.98 µg and 465.53 µg
[3]; [8]
  Total recovered: 983.22 µg and 979.15 µg
  amount in Device + Capsule: 462.40 µg and 459.39 µg
[3]; [9]
  Total recovered: 937.91 µg and 949.52 µg
  amount in Device + Capsule: 468.24 µg and 473.48 µg
[3]; Example 5 blend
  DU based on nominal dose, % (Device + Capsule): *44.5%
  DU based on nominal dose, % (printed in Adapter + Filter column): 47.8%
  DU based on total recovered, % (Device + Capsule): **48.2%
  DU based on total recovered, % (printed in Adapter + Filter column): 51.8%
[4]
  moisture and light sensitivity: moisture sensitive and photosensitive
